Test results: paper PMC7179183, “Design of Biphenyl-Substituted Diarylpyrimidines with a Cyanomethyl Linker as HIV-1 NNRTIs via a Molecular Hybridization Strategy” (Molecules, 2020)

Key:
WT HIV-1 (strain IIIB) = experiment: microbe, parasite or virus in culture; type: cell-based; settings: MT-4 cells; protection against virus-induced cytopathicity by 50%; mean of at least three experiments; read-out: EC50 HIV-1 IIIB
Protocol: (§1) The newly synthesized compounds were evaluated for their potency and cytotoxicity against the WT HIV-1 (strain IIIB) in MT-4 cells using the MTT method. The biological evaluation results are represented as EC50 values (anti-HIV-1 activity), CC50 values (cytotoxicity), and SI values (selectivity index, CC50/EC50 ratio).

MT-4 cells = experiment: Cytotoxicity in uninfected MT-4 cells, MTT method; type: cell-based; settings: uninfected MT-4 cells; viability reduced by 50%
Protocol: as §1

[1] = system: L100I mutant HIV-1 strain; experiment: Anti-HIV-1 activity against L100I mutant strain in MT-4 cells; type: cell-based; settings: MT-4 cells; read-out: EC50 L100I
[2] = system: E138K mutant HIV-1 strain; experiment: Anti-HIV-1 activity against E138K mutant strain in MT-4 cells; type: cell-based; settings: MT-4 cells; read-out: EC50 E138K
[3] = system: Y181C mutant HIV-1 strain; experiment: Anti-HIV-1 activity against Y181C mutant strain in MT-4 cells; type: cell-based; settings: MT-4 cells; read-out: EC50 Y181C
[4] = system: K103N mutant HIV-1 strain; experiment: Anti-HIV-1 activity against K103N mutant strain in MT-4 cells; type: cell-based; settings: MT-4 cells; read-out: EC50 K103N
[5] = system: Y188L mutant HIV-1 strain; experiment: Anti-HIV-1 activity against Y188L mutant strain in MT-4 cells; type: cell-based; settings: MT-4 cells; read-out: EC50 Y188L
[6] = system: F227L + V106A double RT mutant HIV-1 strain; experiment: Anti-HIV-1 activity against F227L + V106A double mutant strain in MT-4 cells; type: cell-based; settings: MT-4 cells; read-out: EC50 F227L + V106A
[7] = system: K103N + Y181C double RT mutant HIV-1 strain; experiment: Anti-HIV-1 activity against K103N + Y181C double mutant strain in MT-4 cells; type: cell-based; settings: MT-4 cells; read-out: EC50 K103N + Y181C
WT HIV-1 RT = WT HIV-1 RT (Human immunodeficiency virus type 1 group M subtype B, UniProt P03366); experiment: Enzymatic assay against WT HIV-1 RT; settings: read-out: IC50 WT HIV-1 RT polymerase activity
Protocol: The enzymatic assay against WT HIV-1 RT was conducted for most compounds (Table 2).

Compound	EC50 (WT HIV-1 (strain IIIB))	CC50 (MT-4 cells)	EC50 [1]	EC50 [2]	EC50 [3]	EC50 [4]	EC50 [5]	EC50 [6]	EC50 [7]	IC50 (WT HIV-1 RT)
N#Cc1ccc(Nc2nccc(C(C#N)c3ccc(-c4ccccc4)cc3)n2)cc1 (racemic) [Compound 10a, (±)-4-((4-([1,1′-biphenyl]-4-yl(cyano)methyl)pyrimidin-2-yl)amino)benzonitrile]	2.9 ± 1.89 µM	30.8 ± 8.57 µM	> 30.8 µM	≥ 12.6 µM	> 30.8 µM	> 30.8 µM	> 30.8 µM	> 30.8 µM	> 30.8 µM	
N#Cc1ccc(Nc2nccc(C(C#N)c3ccc(-c4ccccc4)c(F)c3)n2)cc1 (racemic) [Compound 10b, (±)-4-((4-(cyano(2-fluoro-[1,1′-biphenyl]-4-yl)methyl)pyrimidin-2-yl)amino)benzonitrile]	4.96 ± 0.56 µM	27.3 ± 5.85 µM	≥ 27.3 µM	9.29 ± 1.37 µM	> 27.3 µM	> 27.3 µM	> 27.3 µM	> 27.3 µM	> 27.3 µM	0.46 ± 0.162 µM
N#Cc1ccc(Nc2nccc(C(C#N)c3ccc(-c4ccccc4)cc3F)n2)cc1 (racemic) [Compound 10c, (±)-4-((4-(cyano(3-fluoro-[1,1′-biphenyl]-4-yl)methyl)pyrimidin-2-yl)amino)benzonitrile]	0.33 ± 0.07 µM	23.8 ± 4.48 µM	≥ 10.3 µM	1.69 ± 0.17 µM	6.37 ± 0.78 µM	10.3 ± 0.85 µM	> 23.8 µM	> 23.8 µM	> 23.8 µM	0.062 ± 0.024 µM
Cc1ccccc1-c1ccc(C(C#N)c2ccnc(Nc3ccc(C#N)cc3)n2)c(F)c1 (racemic) [Compound 10d, (±)-4-((4-(cyano(3-fluoro-2′-methyl-[1,1′-biphenyl]-4-yl)methyl)pyrimidin-2-yl)amino)benzonitrile]	0.43 ± 0.21 µM	30.1 ± 1.94 µM	3.67 ± 0.54 µM	2.5 ± 0.33 µM	4.89 ± 1.07 µM	8.14 ± 1.82 µM	> 30.1 µM	> 30.1 µM	> 30.1 µM	0.074 ± 0.024 µM
Cc1cccc(-c2ccc(C(C#N)c3ccnc(Nc4ccc(C#N)cc4)n3)c(F)c2)c1 (racemic) [Compound 10e, (±)-4-((4-(cyano(3-fluoro-3′-methyl-[1,1′-biphenyl]-4-yl)methyl)pyrimidin-2-yl)amino)benzonitrile]	0.43 ± 0.07 µM	26.9 ± 3.78 µM	9.14 ± 3.61 µM	3.59 ± 1.03 µM	> 26.9 µM	> 26.9 µM	> 26.9 µM	> 26.9 µM	> 26.9 µM	0.101 ± 0.059 µM
Cc1ccc(-c2ccc(C(C#N)c3ccnc(Nc4ccc(C#N)cc4)n3)c(F)c2)cc1 (racemic) [Compound 10f, (±)-4-((4-(cyano(3-fluoro-4′-methyl-[1,1′-biphenyl]-4-yl)methyl)pyrimidin-2-yl)amino)benzonitrile]	0.43 ± 0.09 µM	30.9 ± 2.76 µM	6.12 ± 1.62 µM	2.55 ± 0.17 µM	9.27 ± 1.14 µM	8.08 ± 2.74 µM	> 30.9 µM	> 30.9 µM	> 30.9 µM	0.093 ± 0.051 µM
COc1ccccc1-c1ccc(C(C#N)c2ccnc(Nc3ccc(C#N)cc3)n2)c(F)c1 (racemic) [Compound 10g, (±)-4-((4-(cyano(3-fluoro-2′-methoxy-[1,1′-biphenyl]-4-yl)methyl)pyrimidin-2-yl)amino)benzonitrile]	0.61 ± 0.16 µM	30.1 ± 2.31 µM	4.27 ± 0.46 µM	3.66 ± 0.19 µM	7.79 ± 1.67 µM	9.78 ± 1.6 µM	> 30 µM	> 30 µM	> 30 µM	0.233 ± 0.125 µM
COc1cccc(-c2ccc(C(C#N)c3ccnc(Nc4ccc(C#N)cc4)n3)c(F)c2)c1 (racemic) [Compound 10h, (±)-4-((4-(cyano(3-fluoro-3′-methoxy-[1,1′-biphenyl]-4-yl)methyl)pyrimidin-2-yl)amino)benzonitrile]	1.5 ± 0.24 µM	30.7 ± 2.09 µM	8.57 ± 1.26 µM	6.16 ± 1.47 µM	> 30.7 µM	> 30.7 µM	> 30.7 µM	> 30.7 µM	> 30.7 µM	0.219 ± 0.171 µM
COc1ccc(-c2ccc(C(C#N)c3ccnc(Nc4ccc(C#N)cc4)n3)c(F)c2)cc1 (racemic) [Compound 10i, (±)-4-((4-(cyano(3-fluoro-4′-methoxy-[1,1′-biphenyl]-4-yl)methyl)pyrimidin-2-yl)amino)benzonitrile]	0.51 ± 0.42 µM	183 µM	31.6 ± 7.35 µM	5.51 ± 1.06 µM	8.57 ± 1.21 µM	27 ± 3 µM	50.1 ± 6.52 µM	52.5 µM	> 183 µM	
N#Cc1ccc(Nc2nccc(C(C#N)c3ccc(-c4ccccc4F)cc3F)n2)cc1 (racemic) [Compound 10j, (±)-4-((4-(cyano(2′,3-difluoro-[1,1′-biphenyl]-4-yl)methyl)pyrimidin-2-yl)amino)benzonitrile]	0.21 ± 0.05 µM	27.9 ± 3.56 µM	6.06 ± 2.46 µM	1.03 ± 0.17 µM	3.4 ± 0.48 µM	3.93 ± 0.65 µM	> 27.9 µM	> 27.9 µM	> 27.9 µM	0.058 ± 0.032 µM
N#Cc1ccc(Nc2nccc(C(C#N)c3ccc(-c4ccc(F)cc4)cc3F)n2)cc1 (racemic) [Compound 10l, (±)-4-((4-(cyano(3,4′-difluoro-[1,1′-biphenyl]-4-yl)methyl)pyrimidin-2-yl)amino)benzonitrile]	0.18 ± 0.16 µM	25.6 ± 3.58 µM	6.9 ± 1.76 µM	0.98 ± 0.13 µM	5.1 ± 0.51 µM	6.87 ± 1.17 µM	> 25.6 µM	> 25.6 µM	> 25.6 µM	
N#Cc1ccc(Nc2nccc(C(C#N)c3ccc(-c4cccc(Cl)c4)cc3F)n2)cc1 (racemic) [Compound 10n, (±)-4-((4-((3′-chloro-3-fluoro-[1,1′-biphenyl]-4-yl)(cyano)methyl)pyrimidin-2-yl)amino)benzonitrile]	0.39 ± 0.1 µM	27.6 ± 4.05 µM	8.31 ± 1.2 µM	2.67 ± 0.21 µM	9.19 ± 2.05 µM	7.2 ± 0.89 µM	> 27.6 µM		> 27.6 µM	0.171 ± 0.132 µM
N#Cc1ccc(Nc2nccc(C(C#N)c3ccc(-c4ccc(Cl)cc4)cc3F)n2)cc1 (racemic) [Compound 10o, (±)-4-((4-((4′-chloro-3-fluoro-[1,1′-biphenyl]-4-yl)(cyano)methyl)pyrimidin-2-yl)amino)benzonitrile]	0.18 ± 0.14 µM	27.5 ± 7.3 µM	5.28 ± 1.29 µM	1.5 ± 0.28 µM	7.49 ± 1.64 µM	7.32 ± 0.87 µM	> 27.5 µM	> 27.5 µM	> 27.5 µM	
N#Cc1ccc(Nc2nccc(C(C#N)c3ccc(-c4ccc(C#N)cc4)cc3F)n2)cc1 (racemic) [Compound 10p, (±)-4′-(cyano(2-((4-cyanophenyl)amino)pyrimidin-4-yl)methyl)-3′-fluoro-[1,1′-biphenyl]-4-carbonitrile]	0.027 ± 0.015 µM	36.4 µM	1.21 ± 0.21 µM	0.17 ± 0.03 µM	0.87 ± 0.23 µM	0.9 ± 0.27 µM	9.81 ± 1.3 µM		> 36.4 µM	0.059 ± 0.034 µM
